According to ChEMBL document CHEMBL1133348, “Quinonic derivatives active against a virulent strain of Toxoplasma gondii. Synthesis of 2-methylfuro[2,3-g]- and [3,2-g]isoquinolinetriones” (2000):

Tested on: THP-1
Assay: Percentage growth inhibition of Toxoplasma gondii at concentration of 2 ug/mL using an human myelomonocytic cell line THP-1
Format: functional
Settings: read-out: GI

Compound | inhibition of growth at 2 µg/mL [%]
CCC[C@@H]1C[C@@H](C(=O)N[C@@H]([C@H]2O[C@H](SC)[C@H](O)[C@@H](O)[C@H]2O)[C@H](C)Cl)N(C)C1 [CLINDAMYCIN] | 86
CCOc1cnc2c(c1C)C(=O)c1oc(C)c(C)c1C2=O | 89.5
Cn1cc2c(cc1=O)C(=O)c1ccccc1C2=O | 52
O=C1C=C(Br)C(=O)c2ccccc21 [2-Bromo-1,4-naphthoquinone] | 66
Nc1ccc(S(=O)(=O)Nc2ncccn2)cc1 [SULFADIAZINE] | 90
Cc1cnc2c(c1)C(=O)c1c(oc(C)c1C)C2=O | 96.5
O=C1C(O)=C([C@H]2CC[C@H](c3ccc(Cl)cc3)CC2)C(=O)c2ccccc21 [ATOVAQUONE] | 95
Cc1nc(O)cc2c1C(=O)c1cccc(O)c1C2=O | 50
Cc1cc2c(o1)C(=O)c1cnc(O)cc1C2=O | 62
O=C1c2ccccc2C(=O)c2cc(O)ncc21 | 80
Cc1cc2c(o1)C(=O)c1cc(O)ncc1C2=O | 92
Cc1c2c(cc(=O)n1C)C(=O)c1ccccc1C2=O | 56
CCc1nc(N)nc(N)c1-c1ccc(Cl)cc1 [PYRIMETHAMINE] | 94
Cc1cc2c(o1)C(=O)C=C(Br)C2=O | 83
O=C1c2cc(O)ncc2C(=O)c2c(O)cccc21 | 54
